Measurements as given in patent US10287275B2, “16-member triamilide derivatives and uses thereof” (VICTOR PHARMA CO., LTD. ZHENJIANG, priority 2015, dated 2019).
≈ marks a conversion by molar mass, not a printed value.

How the values were obtained:
Assay type in all cases: cell-based
[1] = tested on: Klebsiella pneumoniae 3753; experiment: Antibacterial MIC, agar-dilution or broth-dilution microtiter test; details: Strain J: Klebsiella pneumoniae 3753
Experimental: (§1) The MIC's in Table I and Table II were determined by standard agar-dilution assays or broth-dilution microtiter test.

[2] = tested on: Streptococcus pneumoniae 2349; experiment: as above; details: Strain L: Streptococcus pneumoniae 2349
Experimental: as §1

Pasteurella 8229 = experiment: as above; details: Strain D: Pasteurella 8229
Experimental: as §1

[3] = tested on: Staphylococcus aureus 29213 (QC strain); experiment: as above; details: Strain H: Staphylococcus aureus 29213 (QC strain)
Experimental: as §1

[4] = tested on: Staphylococcus aureus 5-1; experiment: as above; details: 51; Strain G: Staphylococcus aureus 5-1
Experimental: as §1

[5] = tested on: Actinobacillus pleuropneumoniae serotype 1; experiment: as above; details: Strain A: Actinobacillus pleuropneumoniae serotype 1
Experimental: as §1

[6] = tested on: Klebsiella pneumoniae 3699; experiment: as above; details: Strain K: Klebsiella pneumoniae 3699
Experimental: as §1

Pasteurella 8217 = experiment: as above; details: Strain C: Pasteurella 8217
Experimental: as §1

[7] = tested on: Actinobacillus pleuropneumoniae serotype 7; experiment: as above; details: Strain B: Actinobacillus pleuropneumoniae serotype 7
Experimental: as §1

Escherichia coli IN-F6-7 = experiment: as above; details: INF67; Strain E: Escherichia coli IN-F6-7
Experimental: as §1

[8] = tested on: Escherichia coli 25922 (QC strain); experiment: as above; details: Strain F: Escherichia coli 25922 (QC strain)
Experimental: as §1

salmonella LD4-8 = experiment: as above; details: LD48; Strain I: salmonella LD4-8
Experimental: as §1

[9] = tested on: Streptococcus pneumoniae 49619 (QC strain); experiment: as above; details: Strain M: Streptococcus pneumoniae 49619 (QC strain)
Experimental: as §1

M. gallisepticum S6 = experiment: Mycoplasma susceptibility testing (MIC); details: Mycoplasmoides gallisepticum
Experimental: as §1

M. gallisepticum BG44T = experiment: Mycoplasma susceptibility testing (MIC); details: Mycoplasmoides gallisepticum
Experimental: as §1

M. hyorinis BTS-7 = experiment: Mycoplasma susceptibility testing (MIC)
Experimental: as §1

| SMILES | MIC [1] | MIC [2] | MIC (Pasteurella 8229) | MIC [3] | MIC [4] | MIC [5] | MIC [6] | MIC (Pasteurella 8217) | MIC [7] | MIC (Escherichia coli IN-F6-7) | MIC [8] | MIC (salmonella LD4-8) | MIC [9] | MIC (M. gallisepticum S6) | MIC (M. gallisepticum BG44T) | MIC (M. hyorinis BTS-7) |
| --- | --- | --- | --- | --- | --- | --- | --- | --- | --- | --- | --- | --- | --- | --- | --- | --- |
| CC[C@H]1OC(=O)C[C@@H](O)[C@H](C)[C@@H](O[C@@H]2O[C@H](C)[C@@H](O[C@H]3C[C@@](C)(O)[C@@H](O)[C@H](C)O3)[C@H](N(C)C)[C@H]2O)[C@@H](CC=O)C[C@@H](C)C(=O)/C=C/C(C)=C/[C@@H]1CO[C@@H]1O[C@H](C)[C@@H](O)[C@@H](OC)[C@H]1OC [Tylosin, reference compound] | > 256 µg/mL | < 0.12 µg/mL | 32 µg/mL (≈ 34.9 µM) | 2 µg/mL (≈ 2.18 µM) | > 256 µg/mL | 16 µg/mL (≈ 17.5 µM) | > 256 µg/mL | 32 µg/mL (≈ 34.9 µM) | 8 µg/mL (≈ 8.73 µM) | 256 µg/mL (≈ 279 µM) | 256 µg/mL (≈ 279 µM) | > 256 µg/mL | 2 µg/mL (≈ 2.18 µM) | < 0.12 µg/mL | < 0.12 µg/mL | 1.95 µg/mL (≈ 2.13 µM) |
| CC[C@H]1OC(=O)C[C@@H](O)[C@H](C)[C@@H](O[C@@H]2O[C@H](C)[C@@H](O)[C@H](N(C)C)[C@H]2O)[C@@H](CCN2CCCCC2)C[C@@H](C)C(=O)/C=C/C(C)=C/[C@@H]1CN1CCCCC1 [Zuprevo, reference compound] | 32 µg/mL (≈ 43.6 µM) | 0.5 µg/mL (≈ 0.681 µM) | 1 µg/mL (≈ 1.36 µM) | 256 µg/mL (≈ 349 µM) | > 256 µg/mL | 64 µg/mL (≈ 87.2 µM) | > 256 µg/mL | 1 µg/mL (≈ 1.36 µM) | 64 µg/mL (≈ 87.2 µM) | 4 µg/mL (≈ 5.45 µM) | 4 µg/mL (≈ 5.45 µM) | 8 µg/mL (≈ 10.9 µM) | 256 µg/mL (≈ 349 µM) | < 0.12 µg/mL | < 0.12 µg/mL | 1.95 µg/mL (≈ 2.66 µM) |
